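96-well plates; 48 h exposure; 5 concentrations. Endpoints by linear interpolation between flanking doses. Not reached: highest tested concentration assigned. GI50: concentration for 50% inhibition of growth.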 The source made the active and inactive calls. No stated cut-off is given here; in the data, active = GI50 up to about 1.1 µM and inactive = higher.
Tests used:
Experiment in all cases: DTP human tumour cell line panel, 48 h
NCI/ADR-RES = system: NCI/ADR-RES
RXF 393 = system: RXF 393
SK-MEL-2 = system: SK-MEL-2
HCT-116 = system: HCT-116
UACC-62 = system: UACC-62
MCF7 = system: MCF7
MOLT-4 = system: MOLT-4
MDA-MB-435 = system: MDA-MB-435
SK-MEL-28 = system: SK-MEL-28
COLO 205 = system: COLO 205
SNB-19 = system: SNB-19
ACHN = system: ACHN
IGROV-1 = system: IGROV-1
OVCAR-8 = system: OVCAR-8
CCRF-CEM = system: CCRF-CEM
PC-3 = system: PC-3
MDA-N = system: MDA-N
LOX IMVI = system: LOX IMVI
TK-10 = system: TK-10
BT-549 = system: BT-549

N=C(N)NS(=O)(=O)c1ccc(NNc2c3ccccc3nc3c(C(=O)Nc4ccc(S(=O)(=O)Nc5ncccn5)cc4)cccc23)cc1
GI50 (NCI/ADR-RES): > 100 µM (inactive) | GI50 (RXF 393): 29 µM (inactive) | GI50 (SK-MEL-2): 50.4 µM (inactive) | GI50 (HCT-116): 28.4 µM (inactive) | GI50 (UACC-62): 21.2 µM (inactive) | GI50 (MCF7): 31.5 µM (inactive) | GI50 (MOLT-4): 38.9 µM (inactive) | GI50 (MDA-MB-435): 43.2 µM (inactive) | GI50 (SK-MEL-28): 55.1 µM (inactive) | GI50 (COLO 205): 40.5 µM (inactive) | GI50 (SNB-19): 50.1 µM (inactive) | GI50 (ACHN): 31 µM (inactive) | GI50 (IGROV-1): 18.2 µM (inactive) | GI50 (OVCAR-8): 29.4 µM (inactive) | GI50 (CCRF-CEM): 30.8 µM (inactive) | GI50 (PC-3): 33.7 µM (inactive) | GI50 (MDA-N): 49.7 µM (inactive)

COC(=O)CC(SCCO)SCCO
GI50 (LOX IMVI): > 100 µM (inactive) | GI50 (NCI/ADR-RES): > 100 µM (inactive) | GI50 (RXF 393): > 100 µM (inactive) | GI50 (HCT-116): > 100 µM (inactive) | GI50 (UACC-62): > 100 µM (inactive) | GI50 (MOLT-4): > 100 µM (inactive) | GI50 (MDA-MB-435): > 100 µM (inactive) | GI50 (TK-10): > 100 µM (inactive) | GI50 (SK-MEL-28): > 100 µM (inactive) | GI50 (COLO 205): > 100 µM (inactive) | GI50 (SNB-19): > 100 µM (inactive) | GI50 (ACHN): > 100 µM (inactive) | GI50 (IGROV-1): > 100 µM (inactive) | GI50 (OVCAR-8): > 100 µM (inactive) | GI50 (CCRF-CEM): > 100 µM (inactive) | GI50 (PC-3): > 100 µM (inactive) | GI50 (MDA-N): > 100 µM (inactive)

C#CC1(OC(C)=O)CCC2C3CC=C4C=C(OC(C)=O)CCC4(C)C3CCC21C (stereo not drawn)
GI50 (LOX IMVI): 22.7 µM (inactive) | GI50 (NCI/ADR-RES): 26.9 µM (inactive) | GI50 (BT-549): 31.8 µM (inactive) | GI50 (SK-MEL-2): 19.7 µM (inactive) | GI50 (HCT-116): 16.2 µM (inactive) | GI50 (UACC-62): 18.3 µM (inactive) | GI50 (MCF7): 24.5 µM (inactive) | GI50 (MOLT-4): 13.2 µM (inactive) | GI50 (MDA-MB-435): 20.1 µM (inactive) | GI50 (TK-10): 24.3 µM (inactive) | GI50 (SK-MEL-28): 25.9 µM (inactive) | GI50 (COLO 205): 16.2 µM (inactive) | GI50 (SNB-19): 32.4 µM (inactive) | GI50 (ACHN): 26.7 µM (inactive) | GI50 (IGROV-1): 19.3 µM (inactive) | GI50 (OVCAR-8): 19.1 µM (inactive) | GI50 (CCRF-CEM): 12.6 µM (inactive)

N#C/C(=C/n1c(=S)[nH]c2ccccc21)C(N)=O
GI50 (LOX IMVI): > 100 µM (inactive) | GI50 (NCI/ADR-RES): > 100 µM (inactive) | GI50 (RXF 393): > 100 µM (inactive) | GI50 (SK-MEL-2): > 100 µM (inactive) | GI50 (HCT-116): > 100 µM (inactive) | GI50 (UACC-62): > 100 µM (inactive) | GI50 (MCF7): > 100 µM (inactive) | GI50 (MOLT-4): > 100 µM (inactive) | GI50 (MDA-MB-435): > 100 µM (inactive) | GI50 (SK-MEL-28): > 100 µM (inactive) | GI50 (COLO 205): > 100 µM (inactive) | GI50 (SNB-19): > 100 µM (inactive) | GI50 (ACHN): > 100 µM (inactive) | GI50 (IGROV-1): > 100 µM (inactive) | GI50 (OVCAR-8): > 100 µM (inactive) | GI50 (CCRF-CEM): > 100 µM (inactive) | GI50 (PC-3): > 100 µM (inactive) | GI50 (MDA-N): > 100 µM (inactive)

CN1C2=C(CC3=C1CC(C)(C)CC3=O)C(=O)CC(C)(C)C2
GI50 (LOX IMVI): > 100 µM (inactive) | GI50 (NCI/ADR-RES): > 100 µM (inactive) | GI50 (BT-549): > 100 µM (inactive) | GI50 (UACC-62): > 100 µM (inactive) | GI50 (MCF7): > 100 µM (inactive) | GI50 (MOLT-4): > 100 µM (inactive) | GI50 (TK-10): > 100 µM (inactive) | GI50 (SK-MEL-28): > 100 µM (inactive) | GI50 (SNB-19): > 100 µM (inactive) | GI50 (ACHN): > 100 µM (inactive) | GI50 (IGROV-1): > 100 µM (inactive) | GI50 (OVCAR-8): > 100 µM (inactive) | GI50 (CCRF-CEM): > 100 µM (inactive) | GI50 (PC-3): > 100 µM (inactive)

CNc1cccc2c1C(C)C[C@]1(C)C(=O)Nc3ccccc3[C@H]21 (stereo partly drawn)
GI50 (LOX IMVI): 15.8 µM (inactive) | GI50 (NCI/ADR-RES): 23.1 µM (inactive) | GI50 (RXF 393): 23.2 µM (inactive) | GI50 (SK-MEL-2): 24.1 µM (inactive) | GI50 (HCT-116): 18.7 µM (inactive) | GI50 (UACC-62): 37.7 µM (inactive) | GI50 (MCF7): 22.3 µM (inactive) | GI50 (MOLT-4): 32.8 µM (inactive) | GI50 (MDA-MB-435): 23.5 µM (inactive) | GI50 (TK-10): 13.8 µM (inactive) | GI50 (SK-MEL-28): 30.3 µM (inactive) | GI50 (COLO 205): 29.8 µM (inactive) | GI50 (SNB-19): 23 µM (inactive) | GI50 (ACHN): 23.1 µM (inactive) | GI50 (IGROV-1): 35.8 µM (inactive) | GI50 (OVCAR-8): 19.1 µM (inactive) | GI50 (CCRF-CEM): 40.7 µM (inactive) | GI50 (PC-3): 27.4 µM (inactive) | GI50 (MDA-N): 26.6 µM (inactive)

O=C(OCc1ccccc1)c1nc2ccccc2n1S(=O)(=O)c1ccccc1
GI50 (LOX IMVI): > 100 µM (inactive) | GI50 (NCI/ADR-RES): > 100 µM (inactive) | GI50 (RXF 393): > 100 µM (inactive) | GI50 (BT-549): > 100 µM (inactive) | GI50 (SK-MEL-2): > 100 µM (inactive) | GI50 (HCT-116): > 100 µM (inactive) | GI50 (UACC-62): > 100 µM (inactive) | GI50 (MOLT-4): > 100 µM (inactive) | GI50 (MDA-MB-435): > 100 µM (inactive) | GI50 (TK-10): > 100 µM (inactive) | GI50 (SK-MEL-28): > 100 µM (inactive) | GI50 (COLO 205): 88.7 µM (inactive) | GI50 (SNB-19): > 100 µM (inactive) | GI50 (ACHN): > 100 µM (inactive) | GI50 (IGROV-1): > 100 µM (inactive) | GI50 (OVCAR-8): > 100 µM (inactive) | GI50 (CCRF-CEM): > 100 µM (inactive) | GI50 (PC-3): > 100 µM (inactive)

COc1ccccc1N(CN1C(=O)CCC1C(=O)O)C(C)=O (stereo not drawn)
GI50 (LOX IMVI): > 100 µM (inactive) | GI50 (NCI/ADR-RES): > 100 µM (inactive) | GI50 (RXF 393): 74.5 µM (inactive) | GI50 (SK-MEL-2): > 100 µM (inactive) | GI50 (HCT-116): > 100 µM (inactive) | GI50 (UACC-62): > 100 µM (inactive) | GI50 (MCF7): > 100 µM (inactive) | GI50 (MOLT-4): > 100 µM (inactive) | GI50 (MDA-MB-435): > 100 µM (inactive) | GI50 (TK-10): > 100 µM (inactive) | GI50 (SK-MEL-28): > 100 µM (inactive) | GI50 (COLO 205): > 100 µM (inactive) | GI50 (SNB-19): > 100 µM (inactive) | GI50 (ACHN): > 100 µM (inactive) | GI50 (IGROV-1): 0.138 µM (active) | GI50 (OVCAR-8): > 100 µM (inactive) | GI50 (PC-3): > 100 µM (inactive) | GI50 (MDA-N): > 100 µM (inactive)

Source: ChEMBL document CHEMBL1201862, “PubChem BioAssay data set” (2004)
